Where two headings read alike, the source gives them in different places.
Legend:
[1] = Pharmacokinetics of insufflated ImaT powder in rat: lung sections; type: in vivo, Sprague Dawley rats; conditions: for concentration at 0.08 h / concentration at 1 h / concentration at 4 h / concentration at 8 h: male, Sprague Dawley, rat, lung, inhaled, 4 mg/kg
Experimental: Lungs were also harvested at specified time points (see Table 4). […] Lungs werethen harvested. The left lobe was sectioned into three parts; upper, middle and bottom. Each section was separated into two equal pieces. Each piece was weighed and individually placed in a properly labeled tube. Lungs samples were snap-frozen and stored at −80° C. Lung samples were then homogenized in PBS, 0.1% Triton X-100 (200 mg of tissue/mL). The homogenate samples were stored at −80° C.

[2] = ImaT 4 mg/kg insufflation, 24 h time point
Experimental: After dosing, blood samples and lungs were collected at specific time points over a period of 24 hours.
The rats were anesthetized with a mixture of 1.5 to 3% isoflurane USP (Abbott Laboratories, Montreal Canada) in 100% oxygen, and placed on a homoeothermic heating pad to maintain body temperature at 37±1° C.
For all groups, the test article was insufflated using an automated insufflation device. The insufflator tip was inserted just above the bifurcation of the trachea and the discharge of powder was timed to the inhalation cycle of the animal. After dosing, the animals were allowed to recover from anesthesia under surveillance before being returned to their respective cages.
Blood samples of 0.5 mL were collected from the jugular vein at specified time points (see Table 4).
Blood samples were centrifuged (3000 r.p.m. for 10 min., 2-8° C.) and plasma was transferred into an Eppendorf tube labeled with the Study Number, animal I.D., dose group and time point.
For each group, data in this report is expressed as mean±S.E.M.

[3] = section 1 (homogenate), read-out: Lung conc, Section 1
[4] = section 2 (homogenate), read-out: Lung conc, Section 2
[5] = section 3 (homogenate), read-out: Lung conc, Section 3
[6] = section 4 (homogenate), read-out: Lung conc, Section 4
[7] = section 5 (homogenate), read-out: Lung conc, Section 5
[8] = section 6 (homogenate), read-out: Lung conc, Section 6

Imatinib concentrations in the lung ([1]; ImaT 4 mg/kg insufflation, 24 hour time point): below the limit of detection | concentration at 0.08 h [1, 3]: 201 ng/mL | concentration at 1 h [1, 3]: 260 ng/mL | concentration at 4 h [1, 3]: 62 ng/mL | concentration at 8 h [1, 3]: 27.2 ng/mL | concentration at 0.08 h [1, 4]: 1530 ng/mL | concentration at 1 h [1, 4]: 638 ng/mL | concentration at 4 h [1, 4]: 51 ng/mL | concentration at 8 h [1, 4]: 24.4 ng/mL | concentration at 0.08 h [1, 5]: 888 ng/mL | concentration at 1 h [1, 5]: 307 ng/mL | concentration at 4 h [1, 5]: 55.9 ng/mL | concentration at 8 h [1, 5]: 21.1 ng/mL | concentration at 0.08 h [1, 6]: 3000 ng/mL | concentration at 1 h [1, 6]: 510 ng/mL | concentration at 4 h [1, 6]: 68.4 ng/mL | concentration at 8 h [1, 6]: 24.6 ng/mL | concentration at 0.08 h [1, 7]: 2580 ng/mL | concentration at 1 h [1, 7]: 196 ng/mL | concentration at 4 h [1, 7]: 69.5 ng/mL | concentration at 8 h [1, 7]: 22.1 ng/mL | concentration at 0.08 h [1, 8]: 4740 ng/mL | concentration at 1 h [1, 8]: 314 ng/mL | concentration at 4 h [1, 8]: 66.3 ng/mL | concentration at 8 h [1, 8]: 24.6 ng/mL | Time of maximal lung concentration of Imatinib ([1]; post-inhalation of ImaT): 5 min | Plasma concentration of Imatinib [2]: below the limit of detection
SMILES: Cc1ccc(NC(=O)c2ccc(CN3CCN(C)CC3)cc2)cc1Nc1nccc(-c2cccnc2)n1 [Imatinib, 4-[(4-methylpiperazin-1-yl)methyl]-N-[4-methyl-3-[(4-pyridin-3-ylpyrimidin-2-yl)amino]phenyl]benzamide]
